Test results from ChEMBL document CHEMBL4808186, “Structure-Based Discovery of Pyrimidine Aminobenzene Derivatives as Potent Oral Reversal Agents against P-gp- and BCRP-Mediated Multidrug Resistance” (J Med Chem, 2021).
The source made the active and inactive calls. No cut-off for these calls is given here.

Experiments:
[1] = molecular target: T1, ATP-dependent translocase ABCB1 (Homo sapiens, UniProt P08183); assay: Inhibition of P-gp-mediated multidrug resistance in human K562/A02 cells assessed as Adriamycin accumulation pretreated 1 hr followed by treated with adriamycin measured after 180 mins by flow cytometry; type: cell-based; details: k562/a02, 4 h, time 240 min
T1 sequence (P08183 whole entry): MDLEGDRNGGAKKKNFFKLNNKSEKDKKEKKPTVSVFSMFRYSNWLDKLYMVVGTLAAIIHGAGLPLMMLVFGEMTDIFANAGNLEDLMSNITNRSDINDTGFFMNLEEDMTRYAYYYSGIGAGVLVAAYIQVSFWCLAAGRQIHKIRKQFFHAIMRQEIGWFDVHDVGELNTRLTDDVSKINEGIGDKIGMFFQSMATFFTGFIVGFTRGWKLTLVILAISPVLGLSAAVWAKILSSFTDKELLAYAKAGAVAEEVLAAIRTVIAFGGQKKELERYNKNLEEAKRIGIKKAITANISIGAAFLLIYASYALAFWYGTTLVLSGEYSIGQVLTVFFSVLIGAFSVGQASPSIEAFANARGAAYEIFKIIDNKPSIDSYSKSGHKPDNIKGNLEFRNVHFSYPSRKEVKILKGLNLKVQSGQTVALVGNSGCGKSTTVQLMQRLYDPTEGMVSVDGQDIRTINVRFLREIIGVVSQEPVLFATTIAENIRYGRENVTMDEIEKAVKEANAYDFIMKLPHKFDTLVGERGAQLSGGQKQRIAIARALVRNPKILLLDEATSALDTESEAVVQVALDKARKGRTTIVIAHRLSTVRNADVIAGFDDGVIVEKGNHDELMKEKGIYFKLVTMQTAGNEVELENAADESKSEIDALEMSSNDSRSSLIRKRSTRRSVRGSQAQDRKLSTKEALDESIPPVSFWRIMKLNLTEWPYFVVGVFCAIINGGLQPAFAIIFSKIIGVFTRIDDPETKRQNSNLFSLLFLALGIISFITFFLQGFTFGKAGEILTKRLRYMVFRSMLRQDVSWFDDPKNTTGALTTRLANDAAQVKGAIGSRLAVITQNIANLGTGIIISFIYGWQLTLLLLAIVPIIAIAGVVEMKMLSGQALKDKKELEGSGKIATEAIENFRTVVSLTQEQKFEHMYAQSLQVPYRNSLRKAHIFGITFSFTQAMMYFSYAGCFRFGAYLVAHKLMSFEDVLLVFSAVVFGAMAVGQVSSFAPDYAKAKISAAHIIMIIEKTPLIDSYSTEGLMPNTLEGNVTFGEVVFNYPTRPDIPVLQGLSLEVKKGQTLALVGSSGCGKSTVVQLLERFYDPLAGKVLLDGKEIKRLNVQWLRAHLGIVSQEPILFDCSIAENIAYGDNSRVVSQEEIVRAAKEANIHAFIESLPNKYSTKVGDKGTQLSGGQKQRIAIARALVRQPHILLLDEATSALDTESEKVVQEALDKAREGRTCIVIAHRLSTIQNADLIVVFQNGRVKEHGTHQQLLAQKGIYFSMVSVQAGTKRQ

MDCK-II [2] = assay: cells; details: Canis lupus familiaris, 48 h
MDCK-II [3] = assay: Inhibition of BCRP-mediated multidrug resistance in MDCK-II cells assessed as mitoxantrone accumulation at 0.1 to 5 uM pretreated 1 hr followed by treated with mitoxantrone measured after 180 mins by flow cytometry; type: cell-based; details: Canis lupus familiaris, dose 0.1-5 µM, time 240.0 min
K562 [4] = assay: Cytotoxicity against human K562 cells incubated for 48 hrs by MTT assay; type: functional, cell-based; details: K562, 48 h
K562 [5] = assay: cells; details: Homo sapiens, K562, 48 h, read-out: Activity
[6] = molecular target: T1, ATP-dependent translocase ABCB1; assay: Inhibition of P-gp-mediated multidrug resistance in human K562/A02 cells assessed as Adriamycin accumulation at 1 to 10 uM pretreated 1 hr followed by treated with adriamycin measured after 180 mins by fluorescence microscopy; type: cell-based; details: k562/a02, 4 h, dose 1-10 µM, time 240 min
K562/A02 = assay: Cytotoxicity against P-gp overexpressing human K562/A02 cells incubated for 48 hrs by MTT assay; type: functional, cell-based; details: K562/A02, 48 h
MDCK-II [7] = assay: cells; details: Canis lupus familiaris, 48 h; remark: listed apart in the source
[8] = n-Octanol/water partition coefficient, logP of the compound by UHPLC analysis; type: physicochemical

COc1cc2c(cc1OC)CN(CCc1ccc(NC(=O)c3cc(OC)c(OC)cc3NC(=O)c3cnc4ccccc4c3)cc1)CC2
Activity [1]: Dose-Dependent Effect
IC50 (MDCK-II [2]): > 100 µM
Activity (MDCK-II [3]): Active
IC50 (K562 [4]): > 100 µM
viability at 5 µM (K562 [5]): 61.3%
Activity [6]: Active
IC50 (K562/A02; read-out: IC50): > 100 µM
IC50 (MDCK-II [7]): 83.6 µM

Cc1ccc(NC(=O)c2ccc(CN3CCN(C)CC3)cc2)cc1Nc1nccc(-c2cccnc2)n1 [IMATINIB]
IC50 (MDCK-II [2]): 65.8 µM
IC50 (K562 [4]): 87.3 µM
viability at 5 µM (K562 [5]): 81.6%
IC50 (K562/A02): 75.7 µM
IC50 (MDCK-II [7]): > 100 µM

COc1ccc2c3c([nH]c2c1)[C@H](CC(C)C)N1C(=O)[C@H](CCC(=O)OC(C)(C)C)NC(=O)[C@@H]1C3
IC50 (MDCK-II [2]): 87.2 µM
Activity (MDCK-II [3]): Active
IC50 (K562 [4]): 71.5 µM
IC50 (K562/A02; read-out: IC50): 58.7 µM
IC50 (MDCK-II [7]): 58.3 µM

COc1ccc(CCN(C)CCCC(C#N)(c2ccc(OC)c(OC)c2)C(C)C)cc1OC (configuration not stated)
Activity [1]: Dose-Dependent Effect
IC50 (K562 [4]): > 100 µM
Activity [6]: Active
IC50 (K562/A02; read-out: IC50): > 100 µM

COc1ccc(-c2ccnc(Nc3cc(C(=O)Nc4ccc(CCN5CCc6cc(OC)c(OC)cc6C5)cc4)ccc3C)n2)cc1
IC50 (MDCK-II [2]): > 100 µM
IC50 (K562 [4]): > 100 µM
IC50 (K562/A02; read-out: IC50): > 100 µM
IC50 (MDCK-II [7]): > 100 µM
logP [8]: 1.35
